Measured values from ChEMBL document CHEMBL5385867, “2-Phenoxy-3, 4'-bipyridine derivatives inhibit AURKB-dependent mitotic processes by disrupting its localization” (Eur J Med Chem, 2023).
Active and inactive are the calls of the source. No cut-off for these calls is given here.

What was measured:
[1] = Induction of mitotic arrest in human RPE-MYC cells transfected with BCL2 assessed as mitotic index at 50 nM measured after 24 hrs by DAPI staining based bright field microscopic analysis (reference value: 3.5%); assay type: functional
Tubulin (Homo sapiens) = Tubulin (Homo sapiens) (UniProt P68371+Q9H4B7+P0DPH7+P68366+Q13509+Q71U36+P04350+Q3ZCM7+P07437+P68363+Q9BQE3+Q6PEY2+Q13885+Q9BVA1+Q9BUF5); assay: Stabilization of microtubule in human RPE-MYC cells transfected with BCL2 assessed as misaligned chromosomes in metaphase cells at 50 nM measured after 24 hrs by immunofluorescence staining based analysis; assay type: cell-based
RPE [2] = assay: Inhibition of actin polymerization in human RPE-MYC cells transfected with BCL2 assessed as accumulation of polyploid cells with multilobular nuclei at 2 ug/ml measured after 48 hrs by immunofluorescence staining based analysis; assay type: cell-based; conditions: dose 2.0 µg/ml
[3] = Induction of mitotic arrest in human RPE-MYC cells transfected with BCL2 assessed as mitotic index at 2 ug/ml measured after 24 hrs by DAPI staining based bright field microscopic analysis (reference value: 3.5%); assay type: functional; conditions: dose 2 µg/ml
RPE [4] = assay: Inhibition of actin polymerization in human RPE-MYC cells transfected with BCL2 assessed as chromosome misalignment in metaphase at 2 ug/ml measured after 24 hrs by immunofluorescence staining based analysis; assay type: cell-based; conditions: dose 2.0 µg/ml
RPE [5] = assay: Inhibition of actin polymerization in human RPE-MYC cells transfected with BCL2 assessed as lagging chromosomes in anaphase at 2 ug/ml measured after 24 hrs by immunofluorescence staining based analysis; assay type: cell-based; conditions: dose 2.0 µg/ml

Row | SMILES | Activity [1] | Activity (Tubulin (Homo sapiens)) | inhibition (RPE [2]) | Activity [3] | inhibition (RPE [4]) | inhibition (RPE [5])
1 | CC(=O)O[C@H]1C(=O)[C@@]2(C)[C@H]([C@H](OC(=O)c3ccccc3)[C@]3(O)C[C@H](OC(=O)[C@H](O)[C@@H](NC(=O)c4ccccc4)c4ccccc4)C(C)=C1C3(C)C)[C@]1(OC(C)=O)CO[C@@H]1C[C@@H]2O [PACLITAXEL] | 97.3% | inactive |  |  |  | 
2 | C=C1[C@@H](C)[C@H]2[C@H](Cc3ccccc3)NC(=O)[C@]23OC(=O)/C=C/[C@H](O)CCC[C@@H](C)C/C=C/[C@H]3[C@@H]1O [CYTOCHALASIN B] |  |  | Active | 2.7% | inactive | inactive
